{"source": "patent US11253567B2", "about": "“Citrus seed extract-containing composition, food, drug, and method for producing citrus seed extract-containing composition” (Kikkoman Corporation, priority 2014, dated 2022)", "key": {"[1]": {"system": "KKAy mice", "experiment": "Rearing experiment of KKAy mice: blood-glucose level", "type": "in vivo", "conditions": "Experiment 5, FIG. 11; 0.035 mass % in AIN-93G feed; pair feeding; day 28", "method": "(§1) KKAy mice at 3 weeks of age were purchased from CLEA Japan, Inc. as diabetes onset mode mice, and experimentally reared after preliminary rearing for 7 days. Herein, the conditions of rearing the mice were as follows. […]\n(§2) AIN-93G was used for base experimental feed. […]\n(§3) Note, the Yuzu seed extract used in Experiment 1 was prepared by heat-drying the Yuzu seeds at 100° C. for 720 min, subsequently grinding the dried Yuzu seeds so that the particle size (i.e., diameter) became about 1 mm or less, and performing extraction at an ambient temperature for 10 min using 10-fold volume of 100% ethanol to the ground Yuzu seeds.\nIn each of a control group (i.e., administered with AIN-93G alone including no other materials), a Yuzu seed extract (1% mass %) added group, a pioglitazone (0.03 mass %) added group, 10 mice were preliminarily reared for 7 days, and subsequently reared with the experimental feed totally for 28 days.\nAfter initiating the rearing experiment, blood was collected through a tail vain at the time from 9 am to 11 am at a day after the predetermined days passed. Then, the collected blood was analyzed by blood-glucose analyzers (HORIBA, Ltd. Antsence III and Bayer DCA2000) to measure a blood-glucose level and an HbA1c level. The measured blood-glucose and HbA1c levels were processed to calculate the mean value of each group. […]"}, "[2]": {"system": "KKAy mice", "experiment": "Rearing experiment of KKAy mice: HbA1c level", "type": "in vivo", "conditions": "Experiment 5, FIG. 12; 0.035 mass % in AIN-93G feed; pair feeding", "method": "as §1, §2\nas §3, with “seeds. […]” for “seeds.”\nAfter initiating the rearing experiment, blood was collected through a tail vain at the time from 9 am to 11 am at a day after the predetermined days passed. Then, the collected blood was analyzed by blood-glucose analyzers (HORIBA, Ltd. Antsence III and Bayer DCA2000) to measure a blood-glucose level and an HbA1c level. The measured blood-glucose and HbA1c levels were processed to calculate the mean value of each group.\nNote, all the HbA1c levels thus measured and calculated in the experiment are represented by the JDS values. […]"}}, "data": [{"smiles": "CC1(C)OC(=O)C=C[C@]2(C)[C@H]3CC[C@@]4(C)[C@H](c5ccoc5)OC(=O)[C@H]5O[C@]54[C@]3(C)C(=O)C[C@@H]12", "note": "[obacunone, Obacunone]", "values": [{"measurement": "blood-glucose level lower than that of the control group (difference)", "setting": "[1]", "result": "about 50 mg/dl"}, {"measurement": "HbA1c levels compared to control group", "setting": "[2]", "result": "lower than those of the control group"}]}]}
